Results published in PMC11007962, “First-in-human study of GFH018, a small molecule inhibitor of transforming growth factor-β receptor I inhibitor, in patients with advanced solid tumors” (BMC Cancer, 2024).
Entries after “also recorded” stand apart in the source; their conditions may differ. Like-named read-outs stand apart in the source and are kept apart here.

Tested on: patients with advanced solid tumors
[1] = 85 mg BID 14d-on/14d-off (N = 12)
[2] = all 50 patients, none related to GFH018

Protocol: The study consisted of a dose-escalation part followed by an expansion part. In the dose escalation part, a 3-day pharmacokinetic (PK) lead-in period was conducted for a single dose in the first treatment cycle. Patients received GFH018 once on cycle 1 day 1 (C1D1) and underwent serial PK testing over the first 3 days. On C1D4, patients were administered the corresponding dose of GFH018 BID 14 days on/14 days off. The first cycle was defined as 31 days, including 3-day PK leading-in period with GFH018 single dosing and then 14d-on/14d-off dosing schedule. The subsequent cycles were 28 days. The starting dose of GFH018 was 5 mg, with eight planned dose levels up to 85 mg (5, 10, 20, 30, 40, 50, 65, and 85 mg). A modified 3+3 design was used to determine the maximum tolerance dose (MTD) and RDE, guided by safety/tolerability and PK data. Dose-limiting toxicities (DLTs) were evaluated during the first cycle at each dose level. The safety of 85 mg BID, 7 d-on/7 d-off, was explored after confirming the safety of 14 d-on/14 d-off. The DLTs were defined as hematological toxicities, including G4 neutropenia lasting for more than 5 days, G3 febrile neutropenia, G4 anemia, G4 thrombocytopenia, or G3 thrombocytopenia accompanied by bleeding, and ≥ G3 nonhematological toxicity (except for diarrhea, nausea, vomiting, and rash recovering ≤ G2 after supportive treatment within 3 days). The DLTs for cardiac toxicities included ≥ G2 cardiac valve abnormalities, ≥ G2 left ventricular ejection fraction (LVEF) decrease, any cardiovascular impairment shown in imaging, and abnormal highly sensitive troponin (hs-Tn) increased to ≥ twice the baseline in two consecutive tests with an interval ≥ 3 days. In the expansion part, patients were orally administered GFH018 RDE twice daily to further evaluate the safety of RDE and other dose regimens. […] The treatment cycle lasted 28 days.
All enrolled patients were monitored regularly after GFH018 administration. Safety assessments included adverse events (AEs), serious AEs (SAEs), laboratory assessments, vital signs, physical examinations, electrocardiography and echocardiography. AEs were graded according to the NCI Common Terminology Criteria for Adverse Events (NCI-CTCAE) v5.0. All AEs were followed up until they were stable or had recovered to baseline. Adverse events of special interest (AESIs) were predefined as echocardiographic abnormalities such as aggravated stenosis or regurgitation of the heart valves, clinically significant decreases in LVEF, brain natriuretic peptide (BNP) or N-terminal pro-brain natriuretic peptide (NT-proBNP) increases, and hs-Tn increases judged by investigators.
For the safety and efficacy analyses, data from patients who received GFH018 at the same dose in the dose-escalation and expansion cohorts were pooled. The demographic and baseline characteristics were summarized using descriptive methods. Safety and efficacy data were summarized for all patients who received at least one dose of GFH018. The ORR and DCR were summarized by cohort and overall. When the sample size of the analyzed group was ten or more, the Kaplan–Meier method was used to estimate the median PFS and TTP. In this study, treatment-emergent AEs (TEAEs) were defined as AEs that occurred on or after the first dosing date of GFH018 and no later than 30 days after the last dose of GFH018. The incidence and severity of AEs were descriptively summarized according to dose level. The PK parameters of GFH018 were calculated using noncompartmental analysis methods. All plasma PK data were summarized by cohort and visit day or time using descriptive statistics.

Cc1cccc(-c2nn3c(c2-c2ccc4ncnn4c2/C=C/C(N)=O)CCC3)n1 [GFH018]
TEAE: White blood cell count decreased [1]: 2 (16.7%) n (%) | TEAE: White blood cells urine positive [1]: 3 (25.0%) n (%) | TEAE: White blood cells urine positive, any grade (Table S3) [1]: 3 (25.0%) n (%) | TEAE: White blood cells urine positive, maximal CTCAE grade G1 [1]: 3 (25.0%) n (%) | TEAE: White blood cells urine positive, maximal CTCAE grade G2 [1]: 0 n (%) | TEAE: White blood cells urine positive, maximal CTCAE grade G3 [1]: 0 n (%) | TEAE: White blood cells urine positive, maximal CTCAE grade G4 [1]: 0 n (%) | TEAE: White blood cells urine positive, maximal CTCAE grade G5 [1]: 0 n (%) | TRAE: ALP increased [1]: 1 (8.3%) n (%) | TRAE: ALT increased [1]: 2 (16.7%) n (%) | TRAE: AST increased [1]: 4 (33.3%) n (%) | TRAE: Anemia [1]: 3 (25.0%) n (%) | TRAE: GGT increased [1]: 2 (16.7%) n (%) | TRAE: LDH increased [1]: 2 (16.7%) n (%) | TRAE: Lymphocyte count decreased [1]: 2 (16.7%) n (%) | TRAE: Protein urine present [1]: 1 (8.3%) n (%) | TRAE: Proteinuria [1]: 1 (8.3%) n (%) | Treatment-emergent Proteinuria (grouped PTs), G1 [1]: 1 (8.3) n (%) | Treatment-emergent Proteinuria (grouped PTs), G2 [1]: 1 (8.3) n (%) | Treatment-emergent Proteinuria (grouped PTs), G3 [1]: 1 (8.3) n (%) | Treatment-emergent Proteinuria (grouped PTs: proteinuria and urine protein present), any grade [1]: 3 (25.0) n (%) | correlation between incidences of TRAEs and dosages (5–85 mg BID): no obvious correlation | dose-limiting toxicities (DLTs) (5–85 mg BID, evaluated during the first cycle): No dose-limiting toxicity occurred; also recorded: no DLTs were observed at any dose level; also recorded: without any DLTs | skin toxicity (GFH018 as a single agent): No special concerns related to skin toxicity were raised | At least one TEAE (Total (N = 50)): 48 (96.0%) n (%) | At least one TEAE (Table S3) (Total (N = 50)): 48 (96.0%) n (%) | At least one TRAE (Total (N = 50)): 43 (86.0%) n (%) | TEAE: ALP increased (Total (N = 50)): 8 (16.0%) n (%) | TEAE: ALT increased (Total (N = 50)): 8 (16.0%) n (%) | TEAE: ALT increased, any grade (Table S3) (Total (N = 50)): 8 (16.0%) n (%) | TEAE: ALT increased, maximal CTCAE grade G1 (Total (N = 50)): 8 (16.0%) n (%) | TEAE: ALT increased, maximal CTCAE grade G2 (Total (N = 50)): 0 n (%) | TEAE: ALT increased, maximal CTCAE grade G3 (Total (N = 50)): 0 n (%) | TEAE: ALT increased, maximal CTCAE grade G4 (Total (N = 50)): 0 n (%) | TEAE: ALT increased, maximal CTCAE grade G5 (Total (N = 50)): 0 n (%) | TEAE: AST increased (Total (N = 50)): 11 (22.0%) n (%) | TEAE: AST increased, any grade (Table S3) (Total (N = 50)): 11 (22.0%) n (%) | TEAE: AST increased, maximal CTCAE grade G1 (Total (N = 50)): 10 (20.0%) n (%) | TEAE: AST increased, maximal CTCAE grade G2 (Total (N = 50)): 1 (2.0%) n (%) | TEAE: AST increased, maximal CTCAE grade G3 (Total (N = 50)): 0 n (%) | TEAE: AST increased, maximal CTCAE grade G4 (Total (N = 50)): 0 n (%) | TEAE: AST increased, maximal CTCAE grade G5 (Total (N = 50)): 0 n (%) | TEAE: Abdominal distention (Total (N = 50)): 7 (14.0%) n (%) | TEAE: Abdominal pain (Total (N = 50)): 9 (18.0%) n (%) | TEAE: Anemia (Total (N = 50)): 17 (34.0%) n (%) | TEAE: Asthenia (Total (N = 50)): 9 (18.0%) n (%) | TEAE: Bilirubin conjugated increased (Total (N = 50)): 8 (16.0%) n (%) | TEAE: Blood albumin decreased (Total (N = 50)): 6 (12.0%) n (%) | TEAE: Blood bilirubin increased (Total (N = 50)): 5 (10.0%) n (%) | TEAE: C-reactive protein increased (Total (N = 50)): 5 (10.0%) n (%) | TEAE: C-reactive protein increased, any grade (Table S3) (Total (N = 50)): 5 (10.0%) n (%) | TEAE: C-reactive protein increased, maximal CTCAE grade G1 (Total (N = 50)): 5 (10.0%) n (%) | TEAE: C-reactive protein increased, maximal CTCAE grade G2 (Total (N = 50)): 0 n (%) | TEAE: C-reactive protein increased, maximal CTCAE grade G3 (Total (N = 50)): 0 n (%) | TEAE: C-reactive protein increased, maximal CTCAE grade G4 (Total (N = 50)): 0 n (%) | TEAE: C-reactive protein increased, maximal CTCAE grade G5 (Total (N = 50)): 0 n (%) | TEAE: Constipation (Total (N = 50)): 8 (16.0%) n (%) | TEAE: Decreased appetite (Total (N = 50)): 6 (12.0%) n (%) | TEAE: Decreased appetite, any grade (Table S3) (Total (N = 50)): 6 (12.0%) n (%) | TEAE: Decreased appetite, maximal CTCAE grade G1 (Total (N = 50)): 4 (8.0%) n (%) | TEAE: Decreased appetite, maximal CTCAE grade G2 (Total (N = 50)): 2 (4.0%) n (%) | TEAE: Decreased appetite, maximal CTCAE grade G3 (Total (N = 50)): 0 n (%) | TEAE: Decreased appetite, maximal CTCAE grade G4 (Total (N = 50)): 0 n (%) | TEAE: Decreased appetite, maximal CTCAE grade G5 (Total (N = 50)): 0 n (%) | TEAE: GGT increased (Total (N = 50)): 10 (20.0%) n (%) | TEAE: GGT increased, any grade (Table S3) (Total (N = 50)): 10 (20.0%) n (%) | TEAE: GGT increased, maximal CTCAE grade G1 (Total (N = 50)): 8 (16.0%) n (%) | TEAE: GGT increased, maximal CTCAE grade G2 (Total (N = 50)): 2 (4.0%) n (%) | TEAE: GGT increased, maximal CTCAE grade G3 (Total (N = 50)): 0 n (%) | TEAE: GGT increased, maximal CTCAE grade G4 (Total (N = 50)): 0 n (%) | TEAE: GGT increased, maximal CTCAE grade G5 (Total (N = 50)): 0 n (%) | TEAE: Hypoalbuminemia (Total (N = 50)): 7 (14.0%) n (%) | TEAE: LDH increased (Total (N = 50)): 8 (16.0%) n (%) | TEAE: LDH increased, any grade (Table S3) (Total (N = 50)): 8 (16.0%) n (%) | TEAE: LDH increased, maximal CTCAE grade G1 (Total (N = 50)): 8 (16.0%) n (%) | TEAE: LDH increased, maximal CTCAE grade G2 (Total (N = 50)): 0 n (%) | TEAE: LDH increased, maximal CTCAE grade G3 (Total (N = 50)): 0 n (%) | TEAE: LDH increased, maximal CTCAE grade G4 (Total (N = 50)): 0 n (%) | TEAE: LDH increased, maximal CTCAE grade G5 (Total (N = 50)): 0 n (%) | TEAE: Lymphocyte count decreased (Total (N = 50)): 12 (24.0%) n (%) | TEAE: Platelet count decreased (Total (N = 50)): 6 (12.0%) n (%) | TEAE: Proteinuria (Total (N = 50)): 11 (22.0%) n (%) | TEAE: Sinus tachycardia (Total (N = 50)): 10 (20.0%) n (%) | TEAE: Urine protein present (Total (N = 50)): 10 (20.0%) n (%) | TEAE: White blood cell count decreased (Total (N = 50)): 7 (14.0%) n (%) | TEAE: White blood cells urine positive (Total (N = 50)): 5 (10.0%) n (%) | TEAE: White blood cells urine positive, any grade (Table S3) (Total (N = 50)): 5 (10.0%) n (%) | TEAE: White blood cells urine positive, maximal CTCAE grade G1 (Total (N = 50)): 5 (10.0%) n (%) | TEAE: White blood cells urine positive, maximal CTCAE grade G2 (Total (N = 50)): 0 n (%) | TEAE: White blood cells urine positive, maximal CTCAE grade G3 (Total (N = 50)): 0 n (%) | TEAE: White blood cells urine positive, maximal CTCAE grade G4 (Total (N = 50)): 0 n (%) | TEAE: White blood cells urine positive, maximal CTCAE grade G5 (Total (N = 50)): 0 n (%) | TRAE: ALP increased (Total (N = 50)): 5 (10.0%) n (%) | TRAE: ALT increased (Total (N = 50)): 6 (12.0%) n (%) | TRAE: AST increased (Total (N = 50)): 9 (18.0%) n (%) | TRAE: Anemia (Total (N = 50)): 7 (14.0%) n (%) | TRAE: GGT increased (Total (N = 50)): 5 (10.0%) n (%) | TRAE: LDH increased (Total (N = 50)): 5 (10.0%) n (%) | TRAE: Lymphocyte count decreased (Total (N = 50)): 6 (12.0%) n (%) | TRAE: Protein urine present (Total (N = 50)): 6 (12.0%) n (%) | TRAE: Proteinuria (Total (N = 50)): 7 (14.0%) n (%) | Treatment-emergent Proteinuria (grouped PTs), G1 (Total (N = 50)): 12 (24.0) n (%) | Treatment-emergent Proteinuria (grouped PTs), G2 (Total (N = 50)): 8 (16.0) n (%) | Treatment-emergent Proteinuria (grouped PTs), G3 (Total (N = 50)): 1 (2.0) n (%) | Treatment-emergent Proteinuria (grouped PTs: proteinuria and urine protein present), any grade (Total (N = 50)): 21 (42.0) n (%) | TRAE ALP increased, all G (all 50 patients): 10.0% | TRAE ALP increased, ≥G3 (all 50 patients): 0% | TRAE ALT increased, all G (all 50 patients): 12% | TRAE ALT increased, ≥G3 (all 50 patients): 0% | TRAE AST increased, all G (all 50 patients): 18% | TRAE AST increased, ≥G3 (all 50 patients): 0% | TRAE GGT increased, all G (all 50 patients): 10.0% | TRAE GGT increased, ≥G3 (all 50 patients): 0% | TRAE LDH increased, all G (all 50 patients): 10.0% | TRAE LDH increased, ≥G3 (all 50 patients): 0% | TRAE anemia, all G (all 50 patients): 14% | TRAE anemia, ≥G3 (all 50 patients): 2% | TRAE lymphocyte count decreased, all G (all 50 patients): 12.0% | TRAE lymphocyte count decreased, ≥G3 (all 50 patients): 2.0% | TRAE proteinuria, all G (all 50 patients): 14% | TRAE proteinuria, ≥G3 (all 50 patients): 2% | TRAE urine protein present, all G (all 50 patients): 12.0% | TRAE urine protein present, ≥G3 (all 50 patients): 0% | bleeding events (all 50 patients): No significant cardiotoxicity or bleeding was observed; also recorded: No bleeding events occurred | cardiotoxicity (all 50 patients): No significant cardiotoxicity or bleeding was observed; also recorded: No significant cardiotoxicity was observed; also recorded: No significant cardiovascular toxicities were observed | changes in serum creatinine levels or estimated glomerular filtration rate (all 50 patients): no clinically significant changes | grade 4 or 5 TRAEs (all 50 patients): No grade 4 or 5 TRAEs were observed | patients with grade 3 proteinuria (all 50 patients): one | patients with at least one TEAE (all 50 patients, 5-85 mg): ~96.0% | patients with at least one TRAE (all 50 patients, 5-85 mg): 86.0% | patients with at least one ≥ G3 TEAE (all 50 patients, 5-85 mg): 26.0% | patients with ≥ G3 TRAEs (all 50 patients, 5-85 mg): 6% | deaths (all 50 patients, all judged unrelated to GFH018): Six | patients with at least one serious AE (SAE) [2]: nine | treatment discontinuation due to AEs (bilirubin increased, peripheral edema) [2]: two | severity of AESIs (all 50 patients, without clinical symptoms or signs): mild (Grade 1) | maximum tolerated dose (MTD) (eight dose levels up to 85 mg): not reached
